Patent US9060520B2, “Domestic animal parasite-repellent device” (priority 2007, dated 2015)

Assay: Release kinetics at 38° C. in oven, by daily weighing (Examples 5-8, 10, 11)
Type: physicochemical

| SMILES | release as of the fourth day (EVA object with DIAZINON and GIN3, for the remaining 70%) [% per day] | amount released the first three days (EVA object with DIAZINON and GIN3 granules blended 40/60, FIG. 7) [%] | peak of release of LINALOL relative to the bracelet, in absolute value (EVA/PEBAX matrix 30% LINALOL vs PVC bracelet 15% LINALOL, oven 38° C., FIG. 11) [times] |
| --- | --- | --- | --- |
| CCOP(=S)(OCC)Oc1cc(C)nc(C(C)C)n1 [DIAZINON] | 1.30 | 28 | – |
| C=CC(C)(O)CCC=C(C)C (stereo not drawn) [LINALOL] | – | – | 16 |
